Assay results: PubChem BioAssay (NCI)
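Where inhibition never reached the appropriate level, the endpoint shown equals the highest concentration tested. Otherwise, values were interpolated linearly from a five-concentration, 48-hour dose response in 96-well plates. At the GI50, growth is halved. TGI denotes the concentration required for complete inhibition of growth.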

Columns and labels:
Test in all cases: NCI anticancer screen, dose series, 48 h
NCI-H460 lung = tested on: NCI-H460 lung
SF-268 CNS = tested on: SF-268 CNS
SK-MEL-2 melanoma = tested on: SK-MEL-2 melanoma
HCT-116 colon = tested on: HCT-116 colon
RPMI-8226 leukemia = tested on: RPMI-8226 leukemia
UACC-257 melanoma = tested on: UACC-257 melanoma
CCRF-CEM leukemia = tested on: CCRF-CEM leukemia
OVCAR-5 ovarian = tested on: OVCAR-5 ovarian
SK-MEL-28 melanoma = tested on: SK-MEL-28 melanoma
MCF7 breast = tested on: MCF7 breast
UACC-62 melanoma = tested on: UACC-62 melanoma
MDA-MB-435 = tested on: MDA-MB-435
SR leukemia = tested on: SR leukemia
A549 NSCLC = tested on: A549 NSCLC
EKVX NSCLC = tested on: EKVX NSCLC
DU-145 prostate = tested on: DU-145 prostate
MALME-3M melanoma = tested on: MALME-3M melanoma
COLO 205 colon = tested on: COLO 205 colon
CAKI-1 renal = tested on: CAKI-1 renal
A498 renal = tested on: A498 renal
HCC-2998 colon = tested on: HCC-2998 colon
HCT-15 colon = tested on: HCT-15 colon
SW-620 colon = tested on: SW-620 colon
OVCAR-8 ovarian = tested on: OVCAR-8 ovarian
LOX IMVI melanoma = tested on: LOX IMVI melanoma
U251 CNS = tested on: U251 CNS
MDA-MB-231 breast = tested on: MDA-MB-231 breast
SK-MEL-5 melanoma = tested on: SK-MEL-5 melanoma
PC-3 prostate = tested on: PC-3 prostate
RXF 393 renal = tested on: RXF 393 renal
KM12 colon = tested on: KM12 colon
NCI-H23 lung = tested on: NCI-H23 lung
NCI-H226 lung = tested on: NCI-H226 lung
BT-549 breast = tested on: BT-549 breast
T-47D breast = tested on: T-47D breast
HT29 colon = tested on: HT29 colon
SNB-19 CNS = tested on: SNB-19 CNS
SF-295 CNS = tested on: SF-295 CNS
NCI/ADR-RES ovarian = tested on: NCI/ADR-RES ovarian
HS 578T breast = tested on: HS 578T breast
HOP-92 NSCLC = tested on: HOP-92 NSCLC
IGROV1 ovarian = tested on: IGROV1 ovarian
HL-60(TB) leukemia = tested on: HL-60(TB) leukemia
TK-10 renal = tested on: TK-10 renal
ACHN renal = tested on: ACHN renal
786-0 renal = tested on: 786-0 renal
SF-539 CNS = tested on: SF-539 CNS
HOP-62 NSCLC = tested on: HOP-62 NSCLC
M14 melanoma = tested on: M14 melanoma
MOLT-4 leukemia = tested on: MOLT-4 leukemia
OVCAR-3 ovarian = tested on: OVCAR-3 ovarian
OVCAR-4 ovarian = tested on: OVCAR-4 ovarian
K-562 leukemia = tested on: K-562 leukemia
SNB-75 CNS = tested on: SNB-75 CNS
SK-OV-3 ovarian = tested on: SK-OV-3 ovarian
UO-31 renal = tested on: UO-31 renal
SN12C renal = tested on: SN12C renal
NCI-H522 lung = tested on: NCI-H522 lung

Compound: C[n+]1cn(-c2ccc([N+](=O)[O-])cn2)c2ccccc21
- TGI (NCI-H460 lung): > 100 µM
- TGI (SF-268 CNS): > 100 µM
- TGI (SK-MEL-2 melanoma): > 100 µM
- TGI (HCT-116 colon): > 100 µM
- TGI (RPMI-8226 leukemia): > 100 µM
- TGI (UACC-257 melanoma): > 100 µM
- TGI (CCRF-CEM leukemia): > 100 µM
- TGI (OVCAR-5 ovarian): > 100 µM
- TGI (SK-MEL-28 melanoma): > 100 µM
- TGI (MCF7 breast): > 100 µM
- TGI (UACC-62 melanoma): > 100 µM
- TGI (MDA-MB-435): > 100 µM
- TGI (SR leukemia): > 100 µM
- TGI (A549 NSCLC): > 100 µM
- TGI (EKVX NSCLC): > 100 µM
- TGI (DU-145 prostate): > 100 µM
- TGI (MALME-3M melanoma): > 100 µM
- TGI (COLO 205 colon): > 100 µM
- TGI (CAKI-1 renal): > 100 µM
- TGI (A498 renal): > 100 µM
- TGI (HCC-2998 colon): > 100 µM
- TGI (HCT-15 colon): > 100 µM
- TGI (SW-620 colon): > 100 µM
- TGI (OVCAR-8 ovarian): > 100 µM
- TGI (LOX IMVI melanoma): > 100 µM
- TGI (U251 CNS): > 100 µM
- TGI (MDA-MB-231 breast): > 100 µM
- TGI (SK-MEL-5 melanoma): > 100 µM
- TGI (PC-3 prostate): > 100 µM
- TGI (RXF 393 renal): > 100 µM
- TGI (KM12 colon): > 100 µM
- TGI (NCI-H23 lung): > 100 µM
- TGI (NCI-H226 lung): > 100 µM
- TGI (BT-549 breast): > 100 µM
- TGI (T-47D breast): > 100 µM
- TGI (HT29 colon): > 100 µM
- TGI (SNB-19 CNS): > 100 µM
- TGI (SF-295 CNS): > 100 µM
- TGI (NCI/ADR-RES ovarian): > 100 µM
- TGI (HS 578T breast): > 100 µM
- TGI (HOP-92 NSCLC): > 100 µM
- TGI (IGROV1 ovarian): > 100 µM
- TGI (HL-60(TB) leukemia): > 100 µM
- TGI (TK-10 renal): > 100 µM
- TGI (ACHN renal): > 100 µM
- TGI (786-0 renal): > 100 µM
- TGI (SF-539 CNS): > 100 µM
- TGI (HOP-62 NSCLC): > 100 µM
- TGI (M14 melanoma): > 100 µM
- TGI (MOLT-4 leukemia): > 100 µM
- TGI (OVCAR-3 ovarian): > 100 µM
- TGI (OVCAR-4 ovarian): > 100 µM
- TGI (K-562 leukemia): > 100 µM
- TGI (SNB-75 CNS): > 100 µM
- TGI (SK-OV-3 ovarian): > 100 µM
- TGI (UO-31 renal): > 100 µM

Compound: CCC(=O)Oc1cc(/C=C/C(=O)O[C@H]2C[C@H]3CN4CCc5c([nH]c6cc(OC)ccc56)[C@@H]4C[C@@H]3[C@@H](C(=O)OC)[C@@H]2OC)ccc1OC
- GI50 (NCI-H460 lung): 28.6 µM
- TGI (NCI-H460 lung): > 100 µM
- GI50 (SF-268 CNS): 14.1 µM
- TGI (SF-268 CNS): > 100 µM
- GI50 (SK-MEL-2 melanoma): 17.6 µM
- TGI (SK-MEL-2 melanoma): 36.6 µM
- GI50 (HCT-116 colon): 9.11 µM
- TGI (HCT-116 colon): 78.9 µM
- GI50 (UACC-257 melanoma): 15 µM
- TGI (UACC-257 melanoma): > 100 µM
- GI50 (CCRF-CEM leukemia): 3.75 µM
- TGI (CCRF-CEM leukemia): > 100 µM
- GI50 (OVCAR-5 ovarian): 40.4 µM
- TGI (OVCAR-5 ovarian): > 100 µM
- GI50 (SK-MEL-28 melanoma): 13.6 µM
- TGI (SK-MEL-28 melanoma): 35.2 µM
- GI50 (MCF7 breast): 5.16 µM
- TGI (MCF7 breast): 24.3 µM
- GI50 (UACC-62 melanoma): 12.1 µM
- TGI (UACC-62 melanoma): 29.5 µM
- GI50 (MDA-MB-435): 12 µM
- TGI (MDA-MB-435): 29.2 µM
- GI50 (SR leukemia): 2.27 µM
- TGI (SR leukemia): > 100 µM
- GI50 (A549 NSCLC): 21.6 µM
- TGI (A549 NSCLC): > 100 µM
- GI50 (DU-145 prostate): 18 µM
- TGI (DU-145 prostate): > 100 µM
- GI50 (MALME-3M melanoma): 6.75 µM
- TGI (MALME-3M melanoma): 29 µM
- GI50 (COLO 205 colon): 4.57 µM
- TGI (COLO 205 colon): 17.7 µM
- GI50 (CAKI-1 renal): 3.22 µM
- TGI (CAKI-1 renal): > 100 µM
- GI50 (A498 renal): 1.94 µM
- TGI (A498 renal): 9.9 µM
- GI50 (HCC-2998 colon): 47.1 µM
- TGI (HCC-2998 colon): > 100 µM
- GI50 (SN12C renal): 12 µM
- TGI (SN12C renal): > 100 µM
- GI50 (HCT-15 colon): 5.7 µM
- TGI (HCT-15 colon): 23.8 µM
- GI50 (SW-620 colon): 15.9 µM
- TGI (SW-620 colon): > 100 µM
- GI50 (OVCAR-8 ovarian): 19.7 µM
- TGI (OVCAR-8 ovarian): > 100 µM
- GI50 (LOX IMVI melanoma): 13.1 µM
- TGI (LOX IMVI melanoma): 55.1 µM
- GI50 (U251 CNS): 9.67 µM
- TGI (U251 CNS): 88.1 µM
- GI50 (MDA-MB-231 breast): 5 µM
- TGI (MDA-MB-231 breast): 28.4 µM
- GI50 (SK-MEL-5 melanoma): 13 µM
- TGI (SK-MEL-5 melanoma): 28.5 µM
- GI50 (PC-3 prostate): 15 µM
- TGI (PC-3 prostate): > 100 µM
- GI50 (RXF 393 renal): 3.68 µM
- TGI (RXF 393 renal): 17.4 µM
- GI50 (KM12 colon): 18.7 µM
- TGI (KM12 colon): > 100 µM
- GI50 (NCI-H23 lung): 20.5 µM
- TGI (NCI-H23 lung): > 100 µM
- GI50 (NCI-H226 lung): 11.8 µM
- TGI (NCI-H226 lung): > 100 µM
- GI50 (BT-549 breast): 7.53 µM
- TGI (BT-549 breast): 62.4 µM
- GI50 (T-47D breast): 10.8 µM
- TGI (T-47D breast): 41.2 µM
- GI50 (HT29 colon): 3.37 µM
- TGI (HT29 colon): 11.9 µM
- GI50 (SNB-19 CNS): 22.4 µM
- TGI (SNB-19 CNS): > 100 µM
- GI50 (SF-295 CNS): 31 µM
- TGI (SF-295 CNS): > 100 µM
- GI50 (NCI/ADR-RES ovarian): 20.5 µM
- TGI (NCI/ADR-RES ovarian): > 100 µM
- GI50 (HS 578T breast): 5.3 µM
- TGI (HS 578T breast): > 100 µM
- GI50 (HOP-92 NSCLC): 1.58 µM
- TGI (HOP-92 NSCLC): 11.5 µM
- GI50 (IGROV1 ovarian): 14.1 µM
- TGI (IGROV1 ovarian): 75.8 µM
- GI50 (HL-60(TB) leukemia): 3.7 µM
- TGI (HL-60(TB) leukemia): 26.9 µM
- GI50 (TK-10 renal): 14 µM
- TGI (TK-10 renal): 45.1 µM
- GI50 (ACHN renal): 5.34 µM
- TGI (ACHN renal): > 100 µM
- GI50 (786-0 renal): 7.26 µM
- TGI (786-0 renal): > 100 µM
- GI50 (SF-539 CNS): 12.3 µM
- TGI (SF-539 CNS): 30.9 µM
- GI50 (HOP-62 NSCLC): 25.2 µM
- TGI (HOP-62 NSCLC): > 100 µM
- GI50 (M14 melanoma): 13.1 µM
- TGI (M14 melanoma): > 100 µM
- GI50 (MOLT-4 leukemia): 3.87 µM
- TGI (MOLT-4 leukemia): > 100 µM
- GI50 (OVCAR-3 ovarian): 7.3 µM
- TGI (OVCAR-3 ovarian): 67.5 µM
- GI50 (NCI-H522 lung): 16.2 µM
- TGI (NCI-H522 lung): 33.6 µM
- GI50 (K-562 leukemia): 4.06 µM
- TGI (K-562 leukemia): > 100 µM
- GI50 (SNB-75 CNS): 3.74 µM
- TGI (SNB-75 CNS): 26.8 µM
- GI50 (SK-OV-3 ovarian): 59 µM
- TGI (SK-OV-3 ovarian): > 100 µM
- GI50 (UO-31 renal): 4.82 µM
- TGI (UO-31 renal): > 100 µM
